In patent US20220289657A1, “COMPOSITION FOR PREVENTING OR TREATING BACTERIAL INFECTIOUS DISEASE COMPRISING 4-GINGEROL DERIVATIVE COMPOUND AS ACTIVE INGREDIENT” (KOREA UNIVERSITY RESEARCH AND BUSINESS FOUNDATION, SEJONG …, priority 2019, published 2022):

Legend:
Pseudomonas aeruginosa [1] = assay: Bacterial growth under static condition (OD 595 nm of suspended culture); type: cell-based; conditions: for activity at 10 µM / activity at 100 µM: Pseudomonas aeruginosa, 24 h; for activity at 10 µM: read-out: Relative biological activity (%) Bacterial growth 10; for activity at 100 µM: read-out: Relative biological activity (%) Bacterial growth 100
Method: Pseudomonas aeruginosa (P. aeruginosa) (OD 595 nm=1.0) was cultured overnight, and diluted in an AB medium (1:20; 300 mM NaCl, 50 mM MgSO4, 0.2% vitamin-free casamino acids, 10 mM potassium phosphate, 1 mM L-arginine, and 1% glucose, pH 7.5) together with a positive control or compound (0100 μM) in a borosilicate bottle. The resulting mixture was incubated without shaking at 37° C. for 24 hours, and to measure growth inhibition activity. OD 595 nm of the suspended culture was measured using a multimode plate reader. Biofilm cells attached to the bottle were washed twice with phosphate-buffered saline (PBS; 137 mM NaCl, 2.7 mM KCl, 10 mM Na2HPO4, and 2 mM KH2PO4, pH 7.2). Afterward, the remaining biofilm cells were stained with 0.1% crystal violet for 10 minutes, and to remove the unbound crystal violet, washed with deionized water. The crystal violet […] to the biofilm cells was eluted with 100% ethanol, and the OD of the eluted ethanol sample was measured at 545 nm using a multimode plate reader.

Pseudomonas aeruginosa [2] = assay: Dynamic biofilm formation assay (drip-flow reactor, CLSM); type: cell-based; conditions: 48 hours, 10 μM, smaller volume and thickness than control
Method: Glass slides were placed in a drip-flow reactor, and an AB medium containing 5% P. aeruginosa (OD 595 nm=1.0) was added along with a positive control or compound (0 to 10 μM) and the reactor was continuously operated using peristaltic pumps (Masterflex C/L tubing pumps, Cole-Parmer, Ill., USA) at 0.3 ml/min. After the above-described process was carried out at 37° C. for 48 hours, unattached biofilm cells were removed with PBS. The remaining biofilm cells were stained with DAPI (Sigma-Aldrich) for 10 minutes, and observed by confocal laser scanning microscopy (CLSM; Carl Zeiss LSM700, Jena, Germany). The CLSM image of the biofilm cells was obtained with a 20× objective lens (W NAchroplanX20/0.5W (DIC) M27) under blue fluorescence light (excitation wavelength: 350 nm, emission wavelength: 470 nm) using a Z-stack mode of the Zen 2011 program. The volume and thickness of the biofilm were measured using Comstat2 of the ImageJ program based on a CLSM image.

rhlA = assay: RT-qPCR analysis of rhlA expression in biofilm cells; type: cell-based, Pseudomonas aeruginosa; conditions: 10 μM, FIG. 9B
Method: P. aeruginosa (OD 595 nm=1.0) overnight cultured with a positive control or compound (0-10 μM) was diluted (1:20) in an AB medium in a borosilicate bottle. Afterward, after culture for 24 hours at 37° C., biofilm cells were collected for RNA extraction. Total RNA was extracted using a TRI reagent (Molecular Research Center, OH, USA) according to the manufacturer's instruction. To quantify and compare QS-related gene expression levels, RT-qPCR was performed. For RT-qPCR, a SYBR Premix Ex Taq™ (Takara, Shiga, Japan), a CFX-96 real-time system (Bio-Rad, Hercules, Calif. USA), and a QS-related gene primer set were used. The thermal profile of the RT-qPCR is as follows: 40 cycles of initial denaturation for 10 seconds at 95° C., denaturation for 10 seconds at 95° C., annealing for 10 seconds at 60° C., and extension for 34 seconds at 63° C. A fluorescent signal intensity was collected at the end of the elongation step.

LasR = biological target: T1, LasR (Pseudomonas aeruginosa, UniProt P25084); conditions: previous studies; cited from earlier work
T1 construct: expressed in transfected cells; host or cells: E. coli DH5a co-transformed with pJN105L and pSC11 (lasI::lacZ)

Pseudomonas aeruginosa [3] = assay: EPS analysis of drip-flow biofilm cells (carbohydrates, proteins); type: cell-based; conditions: 10 μM
Method: EPS analysis was carried out with the biofilm cells attached to the slides after the operation of the drip-flow reactor. The biofilm cells that were centrifuged were re-suspended with 0.01M KCl, and for the analysis of carbohydrates and proteins, the cells were disrupted with a sonicator (VCX 750, SONICS, Newtown, Conn., USA) for 5 seconds at a level of 3.5 Hz, followed by stopping for 5 seconds, which was repeated 4 times. A supernatant of the cell-disrupted suspension was filtered through a 0.22 μm membrane filter (Millex filter, Carl Roth, Karlsruhe, Germany). For protein analysis, a mixture containing 40 μL of the filtrate and 200 μL of a Lowry reagent (L3540, Sigma-Aldrich) was incubated at room temperature for 10 minutes. Afterward, 20 μL of a Folin-Ciocalteu reagent (Sigma-Aldrich) was added and incubated at room temperature for 30 minutes, followed by measuring OD at 750 nm using a multimode plate reader. A protein amount was quantified at OD 750 nm or OD 595 nm. For carbohydrate analysis, a mixture containing 50 μL of the filtrate and 150 μL of 99.9% sulfuric acid was incubated at room temperature for 30 minutes. Afterward, 5% phenol was added, followed by incubation at 90° C. for 5 minutes. OD was measured at 490 nm using a multimode plate reader. The amount of carbohydrates was quantified at OD 490 nm or OD 595 nm.

[4] = system: rhlR variant of P. aeruginosa; assay: Pyocyanin production assay, rhlR variant; type: cell-based, Pseudomonas aeruginosa; conditions: 10 μM, FIG. 9C
Method: P. aeruginosa cultured overnight with a positive control or compound (0-10 μM) was inoculated in an AB medium, incubated for 24 hours at 37° C., and centrifuged for 10 minutes at 10,000 rpm. To extract pyocyanin, the supernatant was reacted with 50% trifluoroacetic acid (TFA, Sigma-Aldrich) for 1 hour at 37° C. The reacted supernatant was centrifuged for 10 minutes at 10,000 rpm, and filtered through a 0.22-μm filter. […] Specific HPLC conditions are as follows: mobile phase deionized water; TFA (99:1); injection volume:10 μL; temperature: 25° C.; and flow rate: 0.5 mL/min. The retention time of pyocyanin (Sigma-Aldrich) is 20 minutes. To measure a pyocyanin amount, when the retention time was 20 minutes, the height of an analysis peak was detected.

[5] = system: Pseudomonas aeruginosa-injected T. molitor larvae; assay: Mortality of Pseudomonas aeruginosa-injected T. molitor larvae; type: in vivo, Tenebrio molitor; conditions: 10 μM; 20 days of incubation; FIG. 10
Method: The mortality of Tenebrio molitor (T. molitor) larvae was measured with a positive control or compound (0-10 μM) by the method used as in previous research. Overnight-cultured P. aeruginosa (OD 595 nm=1.0) was centrifuged for 10 minutes at 10,000 rpm. The supernatant was filtered through a 0.22-μm filter, and injected into the larvae using a syringe needle. The larvae were stored in a petri dish for 20 days at 25° C. The mortality of the larvae was measured every 5 days.

T1 sequence (P25084 whole entry): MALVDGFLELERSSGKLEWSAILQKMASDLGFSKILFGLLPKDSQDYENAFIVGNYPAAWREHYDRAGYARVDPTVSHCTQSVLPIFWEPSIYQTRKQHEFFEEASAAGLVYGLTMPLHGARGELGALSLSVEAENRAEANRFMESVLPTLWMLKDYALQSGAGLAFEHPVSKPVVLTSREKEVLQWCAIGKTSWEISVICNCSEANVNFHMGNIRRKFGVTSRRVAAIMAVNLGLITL

| SMILES | activity at 10 µM (Pseudomonas aeruginosa [1]) [%] | activity at 100 µM (Pseudomonas aeruginosa [1]) [%] | biofilm appearance under flow condition vs control (Pseudomonas aeruginosa [2]) | downregulation of rhlA expression of biofilm cells (rhlA) [%] | LasR antagonistic activity (reported previously) (LasR) | effect on cell growth (in words) (Pseudomonas aeruginosa [1]; 100 PM [sic] (100 μM)) | reduction of the amount of carbohydrates in EPS (Pseudomonas aeruginosa [3]; FIG. 8B) [%] | reduction of the amount of proteins in EPS (Pseudomonas aeruginosa [3]; FIG. 8C) [%] | virulence factor (pyocyanin) production vs control of the rhlR variant [4] | larvae survived to the end of the incubation [5] |
| --- | --- | --- | --- | --- | --- | --- | --- | --- | --- | --- |
| CCCCC[C@H](O)CC(=O)CCc1ccc(O)c(OC)c1 [Compound 1c, (S)-6-gingerol, reference compound] | 96 | 101 | thinner and more dispersed biofilm | 38 | LasR antagonistic activity |  |  |  |  |  |
| CCCC(=O)C#Cc1ccc(F)c(F)c1 [Compound 30, 1-(3,4-Difluorophenyl)hex-1-yn-3-one] | 103 | 99 |  |  |  | no effect | 39 | 72 | no difference | approximately 80% |
